Reference: patent US9414597B2, “Pesticidal mixtures including spiroheterocyclic pyrrolidine diones” (Syngenta Participations AG, priority 2011, dated 2016)
Values joined by “and” are separate entries in the source; they are usually repeats but may differ in a detail not shown here. Identical values can stand only once.

What was measured:
[1] = test system: Myzus persicae (Green Peach Aphid); test: Myzus persicae feeding/residual contact activity, preventive (sunflower leaf discs); assay type: in vivo
Excerpt: (§1) The action to be expected E for a given active ingredient combination obeys the so-called COLBY formula and can be calculated as follows (COLBY, S. R. “Calculating synergistic and antagonistic responses of herbicide combination”. Weeds, Vol. 15, pages 20-22; 1967): • ppm=milligrams of active ingredient(=a.i.) per liter of spray mixture • X=% action by active ingredient A) using p ppm of active ingredient • Y=% action by active ingredient B) using q ppm of active ingredient.
(§2) According to COLBY, the expected (additive) action of active ingredients A)+B) using p+q ppm of active ingredient is
(§3) If the action actually observed (O) is greater than the expected action (E), then the action of the combination is super-additive, i.e. there is a synergistic effect. In mathematical terms the synergism factor SF corresponds to O/E. In the agricultural practice an SF of ≧1.2 indicates significant improvement over the purely complementary addition of activities (expected activity), while an SF of ≦0.9 in the practical application routine signals a loss of activity compared to the expected activity.
Myzus persicae (Green Peach Aphid):
feeding/residual contact activity, preventive
Sunflower leaf discs are placed on agar in a 24-well microtiter plate and sprayed with the DMSO test solutions. After drying, the leaf discs are infested with an aphid population of mixed ages. […] (1 PPM=1 mg l^−1)

[2] = test system: Tetranychus urticae (Two-Spotted Spider Mite); test: Tetranychus urticae feeding/contact activity, preventive (bean leaf discs); assay type: in vivo
Excerpt: as §1, §2, §3
Tetranychus urticae (Two-Spotted Spider Mite):
feeding/contact activity, preventive
Bean leaf discs on agar in 24-well microtiter plates are sprayed with the DMSO test solutions. After drying, the leaf discs are infested with mite populations of mixed ages. […] (1 PPM=1 mg l^−1)

[3] = single active, 3.125 PPM AI, after 5 days
[4] = single active, 6.25 PPM AI, after 5 days
[5] = single active, 12.5 PPM AI, after 5 days
[6] = single active, 100 PPM AI, after 5 days
[7] = single active, 200 PPM AI, after 5 days
[8] = single active, 400 PPM AI, after 5 days
[9] = single active, 800 PPM AI, after 5 days
[10] = single active, 50 PPM AI, after 5 days

## CC1(C)[C@H](C(=O)O[C@H](C#N)c2cccc(Oc3ccccc3)c2)[C@@H]1/C=C(\Cl)C(F)(F)F (racemic) [Lambda cyhalothrin, lambda-cyhalothrin]
[1]; Lambda Cyhalothrin alone, PPM AI r7-r10:50 r11-r14:25
  AVERAGE DEAD IN % AFTER 5 DAYS: 57%
[2]; [3]
  AVERAGE DEAD IN % AFTER 5 DAYS: 15%

## CNC(=O)c1cc(Cl)cc(C)c1NC(=O)c1cc(Br)nn1-c1ncccc1Cl [Chlorantraniliprol]
[2]; Chlorantraniliprol alone, PPM AI r6:200 r7:400 r8:800
  AVERAGE DEAD IN % AFTER 5 DAYS: 25% and 37%

## CNC(=O)c1cc(Cl)cc(C)c1NC(=O)c1cc(Br)nn1-c1ncccc1Cl [Chlorantraniliprole, chlorantraniliprole]
[1]; Chlorantraniliprole alone, 50 PPM AI
  AVERAGE DEAD IN % AFTER 5 DAYS: 0%
[1]; Table 45, Chlorantraniliprole alone, 50 PPM AI
  AVERAGE DEAD IN % AFTER 5 DAYS: 0%
[2]; Chlorantraniliprole alone, 200 PPM AI
  AVERAGE DEAD IN % AFTER 5 DAYS: 25%
[2]; Chlorantraniliprole alone, PPM AI r6:25 r7:50 r8:100
  AVERAGE DEAD IN % AFTER 5 DAYS: 0%

## CCOC(=O)OC1=C(c2c(C)cc(Cl)cc2C)C(=O)N(C)C12CCN(OC)CC2 [Compound T1.055]
[1]; T1.055 alone, 50 PPM AI
  AVERAGE DEAD IN % AFTER 5 DAYS: 10%
[1]; T1.055 alone, PPM AI r6:100 r7:50 r8:25 r9:12.5
  AVERAGE DEAD IN % AFTER 5 DAYS: 0%
[1]; T1.055 alone, PPM AI r6:100 r7:50 r8:25 r9:12.5 r10:6.25
  AVERAGE DEAD IN % AFTER 5 DAYS: 0%
[1]; Table 45, T1.055 alone, 50 PPM AI
  AVERAGE DEAD IN % AFTER 5 DAYS: 0%
[1]; Table 45, T1.055 alone, 100 PPM AI
  AVERAGE DEAD IN % AFTER 5 DAYS: 25%
[1]; Table 45, T1.055 alone, 200 PPM AI
  AVERAGE DEAD IN % AFTER 5 DAYS: 65%
[1]; Table 46, T1.055 alone, 50 PPM AI
  AVERAGE DEAD IN % AFTER 5 DAYS: 25%
[1]; Table 48, T1.055 alone, 12.5 PPM AI
  AVERAGE DEAD IN % AFTER 5 DAYS: 0%
[1]; Table 48, T1.055 alone, 25 PPM AI
  AVERAGE DEAD IN % AFTER 5 DAYS: 0%
[1]; Table 48, T1.055 alone, 50 PPM AI
  AVERAGE DEAD IN % AFTER 5 DAYS: 65%
[1]; Table 48, T1.055 alone, 100 PPM AI
  AVERAGE DEAD IN % AFTER 5 DAYS: 65%
[1]; Table 48, T1.055 alone, 200 PPM AI
  AVERAGE DEAD IN % AFTER 5 DAYS: 80%
[2]; T1.055 alone, 100 PPM AI
  AVERAGE DEAD IN % AFTER 5 DAYS: 0%
[2]; T1.055 alone, 200 PPM AI
  AVERAGE DEAD IN % AFTER 5 DAYS: 0%
[2]; T1.055 alone, PPM AI r6:200 r7:100 r8:50
  AVERAGE DEAD IN % AFTER 5 DAYS: 0%

## CCOC(=O)OC1=C(c2c(C)cc(C)cc2C)C(=O)N(C)C12CCN(OC)CC2 [Compound T1.058]
[2]; T1.058 alone, 50 PPM AI
  AVERAGE DEAD IN % AFTER 5 DAYS: 0%
[2]; T1.058 alone, 100 PPM AI
  AVERAGE DEAD IN % AFTER 5 DAYS: 55%
[2]; T1.058 alone, PPM AI r7:50 r8:25 r9:12.5 r10:6.25 r11:3.125 r12-r15:50
  AVERAGE DEAD IN % AFTER 5 DAYS: 0%

## CCOC(=O)OC1=C(c2c(C)cc(Cl)cc2C)C(=O)NC12CCN(OC)CC2 [Compound T1iii.055]
[1]; T1iii.055 alone, 12.5 PPM AI
  AVERAGE DEAD IN % AFTER 5 DAYS: 0%
[1]; T1iii.055 alone, 25 PPM AI
  AVERAGE DEAD IN % AFTER 5 DAYS: 0%
[1]; T1iii.055 alone, PPM AI r6:200 r7:100 r8:50 r9:25, 25 ppm active ingredient
  AVERAGE DEAD IN % AFTER 5 DAYS: 50%
[1]; T1iii.055 alone, PPM AI r6:200 r7:100 r8:50 r9:25, 200 ppm active ingredient
  AVERAGE DEAD IN % AFTER 5 DAYS: 80%
[1]; T1iii.055 alone, PPM AI r7:200 r8:100 r9:50
  AVERAGE DEAD IN % AFTER 5 DAYS: 0%
[2]; T1iii.055 alone, 12.5 PPM AI
  AVERAGE DEAD IN % AFTER 5 DAYS: 0%
[2]; single active, 1.56 PPM AI, after 5 days
  AVERAGE DEAD IN % AFTER 5 DAYS: 0%
[2]; [3]
  AVERAGE DEAD IN % AFTER 5 DAYS: 0%
[2]; [4]
  AVERAGE DEAD IN % AFTER 5 DAYS: 0%
[2]; [5]
  AVERAGE DEAD IN % AFTER 5 DAYS: 0%

## CNC(=O)c1cc(C#N)cc(C)c1NC(=O)c1cc(Br)nn1-c1ncccc1Cl [Cyantraniliprole, cyantraniliprole]
[1]; Cyantraniliprole alone, 1.5 PPM AI
  AVERAGE DEAD IN % AFTER 5 DAYS: 0%

## Cc1nn(C)c(/C(OC(=O)C(C)(C)C)=C(\C#N)c2ccc(C(C)(C)C)cc2)c1C [Cyenopyrafen, cyenopyrafen]
[1]; Cyenopyrafen alone, 200 PPM AI
  AVERAGE DEAD IN % AFTER 5 DAYS: 0%
[2]; Cyenopyrafen alone, 1.5 PPM AI
  AVERAGE DEAD IN % AFTER 5 DAYS: 0%
[2]; single active, 1.5 PPM AI, after 5 days
  AVERAGE DEAD IN % AFTER 5 DAYS: 0%
[2]; single active, 3 PPM AI, after 5 days
  AVERAGE DEAD IN % AFTER 5 DAYS: 40%
[2]; single active, 6 PPM AI, after 5 days
  AVERAGE DEAD IN % AFTER 5 DAYS: 85%
[2]; single active, 12 PPM AI, after 5 days
  AVERAGE DEAD IN % AFTER 5 DAYS: 92%

## CC1=NNC(=O)N(/N=C/c2cccnc2)C1 [Pymetrozine, pymetrozine]
[1]; Pymetrozine alone, 0.4 PPM AI
  AVERAGE DEAD IN % AFTER 5 DAYS: 0%
[1]; Pymetrozine alone, 0.8 PPM AI
  AVERAGE DEAD IN % AFTER 5 DAYS: 25%
[1]; Table 48, Pymetrozine alone, 0.8 PPM AI
  AVERAGE DEAD IN % AFTER 5 DAYS: 25%
[2]; Pymetrozine alone, 100 PPM AI
  AVERAGE DEAD IN % AFTER 5 DAYS: 0%
[2]; Pymetrozine alone, 200 PPM AI
  AVERAGE DEAD IN % AFTER 5 DAYS: 0%
[2]; [6]
  AVERAGE DEAD IN % AFTER 5 DAYS: 0%
[2]; [7]
  AVERAGE DEAD IN % AFTER 5 DAYS: 0%
[2]; [8]
  AVERAGE DEAD IN % AFTER 5 DAYS: 0%
[2]; [9]
  AVERAGE DEAD IN % AFTER 5 DAYS: 50%

## CC(c1ccc(C(F)(F)F)nc1)S(C)(=O)=NC#N (stereo not drawn) [Sulfoxaflor, sulfoxaflor]
[1]; Sulfoxaflor alone, 0.2 PPM AI
  AVERAGE DEAD IN % AFTER 5 DAYS: 20%
[2]; Sulfoxaflor alone, PPM AI r6:50 r7:100 r8:200 r9:400
  AVERAGE DEAD IN % AFTER 5 DAYS: 0%
[2]; [6]
  AVERAGE DEAD IN % AFTER 5 DAYS: 0%
[2]; [7]
  AVERAGE DEAD IN % AFTER 5 DAYS: 0%
[2]; [8]
  AVERAGE DEAD IN % AFTER 5 DAYS: 0%
[2]; [9]
  AVERAGE DEAD IN % AFTER 5 DAYS: 35%

## CN1COCN(Cc2cnc(Cl)s2)/C1=N\[N+](=O)[O-] [Thiamethoxam, thiamethoxam]
[1]; Thiamethoxam alone, 0.8 PPM AI
  AVERAGE DEAD IN % AFTER 5 DAYS: 0%
[2]; Thiamethoxam alone, PPM AI r6:50 r7:100 r8:200 r9:400 r10:100 r11:200 r12:400
  AVERAGE DEAD IN % AFTER 5 DAYS: 0%
[2]; [10]
  AVERAGE DEAD IN % AFTER 5 DAYS: 0%
[2]; [6]
  AVERAGE DEAD IN % AFTER 5 DAYS: 0%
[2]; [7]
  AVERAGE DEAD IN % AFTER 5 DAYS: 0%
[2]; [8]
  AVERAGE DEAD IN % AFTER 5 DAYS: 0%
[2]; [9]
  AVERAGE DEAD IN % AFTER 5 DAYS: 37%

## abamectin
[2]; Abamectin alone, PPM AI r6:0.00625 r7:0.0125 r8:0.025 r9:0.05 r10:0.1
  AVERAGE DEAD IN % AFTER 5 DAYS: 0%

## emamectin benzoate
[1]; Emamectin Benzoate alone, PPM AI r7:12.5 r8:25 r9:50 r10:100 r11:200
  AVERAGE DEAD IN % AFTER 5 DAYS: 0%
[1]; Table 46, Emamectin Benzoate alone, 12.5 PPM AI
  AVERAGE DEAD IN % AFTER 5 DAYS: 0%
[1]; Table 46, Emamectin Benzoate alone, 25 PPM AI
  AVERAGE DEAD IN % AFTER 5 DAYS: 0%
[1]; Table 46, Emamectin Benzoate alone, 50 PPM AI
  AVERAGE DEAD IN % AFTER 5 DAYS: 0%
[1]; Table 46, Emamectin Benzoate alone, 100 PPM AI
  AVERAGE DEAD IN % AFTER 5 DAYS: 0%
[1]; Table 46, Emamectin Benzoate alone, 200 PPM AI
  AVERAGE DEAD IN % AFTER 5 DAYS: 0%
[2]; Emamectin Benzoate alone, 0.05 PPM AI
  AVERAGE DEAD IN % AFTER 5 DAYS: 0%
[2]; Emamectin Benzoate alone, PPM AI r7:0.1 r8:0.05 r9:0.025 r10:0.0125 r11:0.00625
  AVERAGE DEAD IN % AFTER 5 DAYS: 0%

## spinetoram
[1]; Spinetoram alone, 100 PPM AI
  AVERAGE DEAD IN % AFTER 5 DAYS: 0%
[2]; [4]
  AVERAGE DEAD IN % AFTER 5 DAYS: 0%
[2]; [5]
  AVERAGE DEAD IN % AFTER 5 DAYS: 25%
[2]; single active, 25 PPM AI, after 5 days
  AVERAGE DEAD IN % AFTER 5 DAYS: 80%
[2]; [10]
  AVERAGE DEAD IN % AFTER 5 DAYS: 95%
